Earlier results in US12263175B2, “Optimised dosage of diaminophenothiazines in populations” (WisTa Laboratories Ltd., priority 2018, dated 2025).

Experiments:
[1] = tested on: huntingtin derivative containing a polyglutamine stretch of 102 residues; settings: zebrafish; tested at 0, 10 and 100 μM; cited from earlier work
[2] = tested on: TDP-43 aggregates in SH-SY5Y cells; settings: 0.05 μM MT; cited from earlier work
[3] = phase 2 study, cited from earlier work

Structure (SMILES) | Formation of aggregates of huntingtin derivative (polyglutamine stretch of 102 residues) [1] | Reduction of the number of TDP-43 aggregates [2] [%] | Efficacy at higher dose ([3]; 218 mg/day) | Minimum safe and effective dose [3] [mg/day]
CN(C)c1ccc2nc3ccc(=[N+](C)C)cc-3sc2c1 [MT, methylthioninium] | prevented the formation of such aggregates in zebrafish in a dose-dependent manner | 50 |  | 
CN(C)c1ccc2nc3ccc(N(C)C)cc3[s+]c2c1.[Cl-] [MTC, methylthioninium chloride] |  |  | limited efficacy | 138
